Measured values reported in patent US10350315B2, “Quinoline-3-carboxamide compounds and their use in diagnosis” (Westfaelische Wihelms-Universitaet Muenster, priority 2014, dated 2019).

Tests used:
[1] = Biodistribution of Cy5.5-CES271 in healthy Balb/c mice (fluorescence intensity in organs); assay type: in vivo
Method: FIG. 16: Biodistribution of Cy5.5-CES271 in healthy Balb/c mice. The tracer was intravenously injected at a dose of 2 nmol per mouse.
The biodistribution of Cy5.5-CES271 and [^99mTc]FEB054 injected to healthy Balb/c mice was analysed by the measurement of fluorescence intensity in various organs. […] The tracer was injected at a dose of 2 nmol per mouse. […] This kinetics, that is different to previously published antibody based tracer anti-S100A9-Cy5.5^7 kinetics favors Cy5.5-CES271 for imaging of organs neighboring the liver like the lung or the heart.

[2] = target: T1, S100A9 (Homo sapiens, UniProt P06702); assay: Binding constant to coated S100A9 by fluorimetric measurement (one site saturation model); conditions: human S100A9 homodimer coated, 1 h at 4° C.
T1 sequence (P06702 1-114): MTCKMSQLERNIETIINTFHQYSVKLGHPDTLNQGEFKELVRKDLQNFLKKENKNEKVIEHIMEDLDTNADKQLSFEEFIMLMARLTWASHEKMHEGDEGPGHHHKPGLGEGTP
Method: FIG. 15: Binding of Cy5.5-CES271 to human and murine S100A9. Estimation of the binding constant of Cy5.5-CES271 to human (A) and murine (B) S100A9. The constant was calculated using the one site saturation regression model. Each dot represents the mean value of four independent experiments.
The binding constant of Cy5.5-CES271 to murine and human S100A9 was determined by fluorimetric measurements. 0.3788 μM S100A9 (5 μg ml^−1 of homodimer S100A9) solved in 50 μl PBS was coated to the bottom of a 96-well plate and served as capturing molecule. For each S100A9 coated well a control well was used with 50 μl PBS alone. After a washing step, unspecific binding sites were blocked by PBS/5% skim milk powder. Cy5.5-CES271 was added at increasing concentrations. After 1 h incubation at 4° C., the supernatants were removed and the fluorescence intensity was measured with a fluorimeter. Non-linear regression analysis was performed with a one site saturation model, to calculate the binding constant of Cy5.5-CES271 to either murine or human S100A9. […] A strong binding affinity of the tracer to S100A9 could be observed that is not affected by the attachment of Cy5.5 to CES271.

[3] = target: T2, S100A9 (Mus musculus, UniProt P31725); assay: LPS-induced acute lung injury (ALI) mouse model, FRI of explanted lungs; assay type: in vivo, mice
T2 construct: from tissue; host or cells: living mice (inflamed ear, joints) and explanted mouse heart, aorta and lungs
T2 sequence (P31725 2-113 limits assumed): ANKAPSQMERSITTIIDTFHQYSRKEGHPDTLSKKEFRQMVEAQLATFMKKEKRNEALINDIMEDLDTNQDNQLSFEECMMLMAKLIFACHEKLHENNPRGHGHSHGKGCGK
Method: FIG. 22: Accumulation of Cy5.5-CES271 in a mouse model of acute lung inflammation (ALI). (A) At different time points after the intranasal application of either 10 pg or 50 pg LPS the local and systemic levels of S100A8/S100A9 are compared to control animals. Exemplary paraffin sections of inflamed and healthy lung tissue, taken at 8 h after LPS (10 pg) application were stained for S100A9-expression. Histological data of control (upper image) and lung inflammation (lower image) confirmed local expression of these proteins. […] 50 pg LPS treated mice injected with glycine saturated Cy5.5 served as perfusion controls. (C) S100A8/S100A9 serum levels of LPS treated and control animals are correlated with the measured Mean Fluorescence Intensity over the lungs (R^2=0.69; n=19; p<0.001).
LPS-induced lung inflammation was elicited via intranasal application of 50 pg or 10 pg of LPS. LPS from Escherichia coli 055:B5 was obtained from Sigma-Aldrich. Directly after the administration of LPS 2 nmol of tracer were injected intravenously. Glycine saturated Cy5.5 served as a perfusion control for CES271-Cy5.5, while Cy5.5-labelled rabbit IgG without relevant specificity served as a control for aS100A9-Cy5.5. Mice were either assigned to fluorescence mediated tomography (FMT) to fluorescence reflectance imaging (FRI). For FRI imaging, the mice were sacrificed at the indicated time points. Afterwards, BALF was obtained and the lungs were fixed with 1% low melt aggarose.
2D FRI lung imaging was performed using the Bruker FX Pro Imaging Station (Bruker Corporation). Excitation light was set to 630 nm using an appropriate bandpass filter. Emission at 700 nm was recorded using a filtre-equipped high-sensitivity (4-million-pixel) cooled charge-coupled device camera. Acquisition time was 5 s for each image.
Mice were intravenously injected with Cy5.5-labelled CES271 (CES271-Cy5.5). The animals underwent optical imaging at various time points after injection. In our blocking experiments each mouse received 2 pmol CES271 1 h before 2 nmol of CES271-Cy5.5 were injected. […]

[4] = target: T1, S100A9; assay: TLR4-S100A9 ELISA: blocking of S100A9 binding to TLR4/MD2; conditions: S100A9 2 μg/ml, 100 μM CES271-Cy5.5, two hours at room temperature
Method: FIG. 5: ELISA-based blocking study showing binding of S100A9 protein to TLR4/MD2 in the presence or absence of quinoline-3-carboxamide compounds covalently linked to a label, in this case Cy5.5-CES271.
Cy5.5-CES271 was successfully synthesized as described in the previous example. Studies were then conducted to verify that Cy5.5-CES271 maintained strong binding affinity for S100A9. In this regard, a specific ELISA (Enyme-linked Immunosorbent Assay) was developed to analyse S100A9 binding to TLR4. In this newly developed assay, the binding of S100A9 to TLR4 can be measured.
Briefly, TLR4/MD2 (3146-TM-050/CF, R&D Systems) was coupled to the wells of a 96-well plate and served as capturing molecule. After blocking of the unspecific binding sites by PBS/5% skim milk powder, plates were washed three times. S100A9 protein was added at a concentration of 2 μg/ml in the presence or absence of 100 μM CES271-Cy5.5 and incubated for two hours at room temperature. Unbound S100 protein was removed by washing the plates for three times, followed by the addition of a primary anti-S100A9-antibody (1 μg/ml, polyclonal, rabbit). After a washing step, the secondary anti-rabbit-IgG-antibody coupled to HRP (1 μg/ml, Cell Signalling) was added. TMB was used as substrate for HRP to quantify binding efficiency by absorbance readings at 450 nm in an ELISA reader (Anthos Mikrosysteme).

[5] = 2 nmol per mouse i.v., 1 and 3 h after injection
[6] = between 1 h and 3 h post injection, 2 nmol i.v.

3-ethyl-2((1E,3E,5E)-5-(3-(1-(5-ethyl-4-hydroxy-1-methyl-2-oxo-1,2-dihydroquinolin-3-yl)-1,15-dioxo-2-phenyl-5,8,11-trioxa-2,14-diazanonadecan-19-yl)-1,1-dimethyl-6,8-disulfonato-1H-benzo[e]indol-2(3H)-ylidene)penta-1,3-dien-1-yl)-1,1-dimethyl-1H-benzo[e]indol-3-ium-6,8-disulfonate [Cy5.5-CES271]
Route of elimination [1, 5]: mainly driven by renal excretion
Tissue availability [1, 5]: good tissue availability
Tracer concentration in heart, spleen, muscle, brain ([1]; 1 h compared with 3 h post injection, 2 nmol i.v.): at the same level
Tracer concentration in kidney, liver and lung ([1]; 3 h vs 1 h post injection, 2 nmol i.v.): higher tracer concentrations
Change of tracer concentration in the blood [1, 6]: decrease
Change of tracer concentration in the urine [1, 6]: increases significantly
Kinetics compared to antibody based tracers ([1]; mouse, in vivo): much faster kinetics
Kd [2]: 2.06 µM
Tracer accumulation in explanted lungs of LPS treated mice ([3]; 3 and 6 hours after parallel LPS/tracer application, 50 pg LPS intranasal, 2 nmol i.v., n=3, p<0.01): specific tracer accumulation could clearly be delineated
Ratio of tracer accumulation in the lung parenchyma, LPS treated mice ([3]; 6 h post induction): up to 2.5
Correlation (R^2) of S100A8/S100A9 serum levels with Mean Fluorescence Intensity over the lungs ([3]; n=19, p<0.001): 0.69
Blocking of binding of S100A9 to TLR4/MD2 (decrease of ELISA signal, absorbance 450 nm) [4]: markedly block
